Test results published in US10479780B2, “Aminopyrazole derivatives” (Chugai Seiyaku Kabushiki Kaisha, priority 2015, dated 2019).

Key:
Type in all cases: biochemical
human Lck enzyme = target: T1, human Lck enzyme (Homo sapiens, UniProt P06239); experiment: Lck enzyme inhibitory activity (time-resolved fluorometry, biotinylated peptide phosphorylation); conditions: biotinylated peptide phosphorylation, read-out: LCK_IC50
T1 construct: purchased Carna Biosciences, Inc. 08-170
Method in brief: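 Readout pairs a europium cryptate-labelled anti-phosphotyrosine antibody with XL665-streptavidin, measured by time-resolved fluorescence. IC50 derived from percent inhibition against untreated controls.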

human Yes1 enzyme = target: T2, human Yes1 enzyme (Homo sapiens, UniProt P07947); experiment: Yes1 enzyme inhibitory activity (time-resolved fluorometry, biotinylated peptide phosphorylation); conditions: biotinylated peptide phosphorylation, read-out: YES_IC50
T2 construct: made in house
T2 sequence (P07947 whole entry): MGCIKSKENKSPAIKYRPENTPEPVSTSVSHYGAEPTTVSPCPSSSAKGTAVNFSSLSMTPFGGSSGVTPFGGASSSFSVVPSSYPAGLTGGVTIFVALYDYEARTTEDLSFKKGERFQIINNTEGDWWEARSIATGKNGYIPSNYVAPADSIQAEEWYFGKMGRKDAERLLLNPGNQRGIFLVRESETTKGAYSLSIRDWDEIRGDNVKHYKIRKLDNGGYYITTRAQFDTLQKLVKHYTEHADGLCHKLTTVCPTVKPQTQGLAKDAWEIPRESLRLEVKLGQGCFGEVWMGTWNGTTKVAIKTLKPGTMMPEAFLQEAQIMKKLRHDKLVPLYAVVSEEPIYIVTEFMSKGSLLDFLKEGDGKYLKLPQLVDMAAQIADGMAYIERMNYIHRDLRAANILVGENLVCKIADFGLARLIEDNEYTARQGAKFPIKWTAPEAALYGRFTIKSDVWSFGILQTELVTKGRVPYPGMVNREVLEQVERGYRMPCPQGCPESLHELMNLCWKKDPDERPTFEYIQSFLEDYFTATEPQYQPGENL
Method in brief: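 Inhibition was expressed against a compound-free control to give IC50, using TR-FRET read-out (Eu-cryptate anti-pTyr antibody, streptavidin-XL665).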

human Src enzyme = target: T3, human Src enzyme (Homo sapiens, UniProt P12931); experiment: Src enzyme inhibitory activity (time-resolved fluorometry, biotinylated peptide phosphorylation); conditions: biotinylated peptide phosphorylation, read-out: SRC_IC50
T3 construct: purchased Carna Biosciences, Inc. 08-173
T3 sequence (P12931 whole entry): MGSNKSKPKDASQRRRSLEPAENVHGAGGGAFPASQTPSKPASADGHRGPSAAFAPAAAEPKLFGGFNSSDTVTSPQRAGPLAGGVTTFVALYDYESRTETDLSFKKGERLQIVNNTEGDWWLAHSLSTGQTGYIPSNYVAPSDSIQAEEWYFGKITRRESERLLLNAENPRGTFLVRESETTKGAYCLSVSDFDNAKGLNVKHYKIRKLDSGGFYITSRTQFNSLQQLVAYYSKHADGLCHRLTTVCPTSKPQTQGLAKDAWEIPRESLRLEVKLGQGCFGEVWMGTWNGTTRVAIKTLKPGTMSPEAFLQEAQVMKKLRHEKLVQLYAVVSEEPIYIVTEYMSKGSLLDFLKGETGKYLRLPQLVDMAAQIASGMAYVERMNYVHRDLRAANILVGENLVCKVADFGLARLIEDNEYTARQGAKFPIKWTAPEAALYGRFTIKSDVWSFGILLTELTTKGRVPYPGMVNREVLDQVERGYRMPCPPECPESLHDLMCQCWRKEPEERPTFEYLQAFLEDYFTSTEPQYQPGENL
Method in brief: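 Compounds were tested for blocking tyrosine phosphorylation of a biotinylated peptide substrate by recombinant human Src. Phosphorylated product was quantified by time-resolved fluorometry using europium cryptate and XL665 conjugates, and IC50 was calculated against the compound-free control.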

T1 sequence (P06239 whole entry): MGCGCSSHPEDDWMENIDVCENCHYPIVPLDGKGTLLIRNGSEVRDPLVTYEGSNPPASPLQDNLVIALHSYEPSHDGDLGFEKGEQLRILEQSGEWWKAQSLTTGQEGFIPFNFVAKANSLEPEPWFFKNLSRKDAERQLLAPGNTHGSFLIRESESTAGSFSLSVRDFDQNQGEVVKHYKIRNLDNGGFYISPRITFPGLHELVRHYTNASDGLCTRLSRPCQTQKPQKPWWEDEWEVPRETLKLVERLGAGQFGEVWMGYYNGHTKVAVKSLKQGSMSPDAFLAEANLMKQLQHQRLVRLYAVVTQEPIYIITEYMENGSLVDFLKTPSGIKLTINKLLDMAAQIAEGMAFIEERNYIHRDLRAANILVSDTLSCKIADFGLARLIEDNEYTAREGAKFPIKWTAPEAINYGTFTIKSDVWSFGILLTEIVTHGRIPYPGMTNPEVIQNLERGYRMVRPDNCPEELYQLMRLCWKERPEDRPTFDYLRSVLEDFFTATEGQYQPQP

Row | IC50 (human Lck enzyme) [nM] | IC50 (human Yes1 enzyme) [nM] | IC50 (human Src enzyme) [nM] | SMILES
1 | 50 | 5.9 | 91 | Cc1cc(Oc2cccc(F)c2F)ccc1-n1ncc(C(=O)c2cc3cc(Cl)c(NS(C)(=O)=O)cc3[nH]2)c1N [Example 4-2-078, N-[2-[5-amino-1-[4-(2,3-difluorophenoxy)-2-methylphenyl]pyrazole-4-carbonyl]-5-chloro-1H-indol-6-yl]methanesulfonamide]
2 | 24 | 2.6 | 66 | Cc1cc(Oc2ccccc2F)cc(F)c1-n1ncc(C(=O)c2cc3cc(Cl)c(NS(C)(=O)=O)cc3[nH]2)c1N [Example 4-2-079, N-[2-[5-amino-1-[2-fluoro-4-(2-fluorophenoxy)-6-methylphenyl]pyrazole-4-carbonyl]-5-chloro-1H-indol-6-yl]methanesulfonamide]
3 | 68 | 12 | 170 | Cc1cc(Oc2cccc(F)c2F)cc(F)c1-n1ncc(C(=O)c2cc3cc(Cl)c(NS(C)(=O)=O)cc3[nH]2)c1N [Example 4-2-080, N-[2-[5-amino-1-[4-(2,3-difluorophenoxy)-2-fluoro-6-methylphenyl]pyrazole-4-carbonyl]-5-chloro-1H-indol-6-yl]methanesulfonamide]
4 | 83 | 14 | 210 | Cc1cc(Oc2cc(F)ccc2F)cc(F)c1-n1ncc(C(=O)c2cc3cc(Cl)c(NS(C)(=O)=O)cc3[nH]2)c1N [Example 4-2-081, N-[2-[5-amino-1-[4-(2,5-difluorophenoxy)-2-fluoro-6-methylphenyl]pyrazole-4-carbonyl]-5-chloro-1H-indol-6-yl]methanesulfonamide]
5 | 160 | 22 | 310 | Cc1cc(Oc2ccccc2Cl)cc(F)c1-n1ncc(C(=O)c2cc3cc(Cl)c(NS(C)(=O)=O)cc3[nH]2)c1N [Example 4-2-082, N-[2-[5-amino-1-[4-(2-chlorophenoxy)-2-fluoro-6-methylphenyl]pyrazole-4-carbonyl]-5-chloro-1H-indol-6-yl]methanesulfonamide]
6 | 250 | 27 | 520 | Cc1cc(Oc2cccc(Cl)c2)cc(F)c1-n1ncc(C(=O)c2cc3cc(Cl)c(NS(C)(=O)=O)cc3[nH]2)c1N [Example 4-2-083, N-[2-[5-amino-1-[4-(3-chlorophenoxy)-2-fluoro-6-methylphenyl]pyrazole-4-carbonyl]-5-chloro-1H-indol-6-yl]methanesulfonamide]
7 | 73 | 6.3 | 160 | Cc1cc(Oc2ccccc2)cc(F)c1-n1ncc(C(=O)c2cc3cc(Cl)c(NS(C)(=O)=O)cc3[nH]2)c1N [Example 4-2-084, N-[2-[5-amino-1-(2-fluoro-6-methyl-4-phenoxyphenyl)pyrazole-4-carbonyl]-5-chloro-1H-indol-6-yl]methanesulfonamide]
8 | 7.6 | 0.81 | 51 | Cc1cc(Oc2ccccc2F)ncc1-n1ncc(C(=O)c2cc3cc(Cl)c(NS(C)(=O)=O)cc3[nH]2)c1N [Example 4-2-085, N-[2-[5-amino-1-[6-(2-fluorophenoxy)-4-methylpyridin-3-yl]pyrazole-4-carbonyl]-5-chloro-1H-indol-6-yl]methanesulfonamide]
9 | 8.3 | 1.6 | 99 | Cc1cc(Oc2c(F)cccc2F)ncc1-n1ncc(C(=O)c2cc3cc(Cl)c(NS(C)(=O)=O)cc3[nH]2)c1N [Example 4-2-086, N-[2-[5-amino-1-[6-(2,6-difluorophenoxy)-4-methylpyridin-3-yl]pyrazole-4-carbonyl]-5-chloro-1H-indol-6-yl]methanesulfonamide]
10 | 55 | 2.7 | 220 | Cc1cc(Oc2cccc(F)c2F)ncc1-n1ncc(C(=O)c2cc3cc(Cl)c(NS(C)(=O)=O)cc3[nH]2)c1N [Example 4-2-087, N-[2-[5-amino-1-[6-(2,3-difluorophenoxy)-4-methylpyridin-3-yl]pyrazole-4-carbonyl]-5-chloro-1H-indol-6-yl]methanesulfonamide]
11 | 48 | 2.6 | 170 | Cc1cc(Oc2ccccc2Cl)ncc1-n1ncc(C(=O)c2cc3cc(Cl)c(NS(C)(=O)=O)cc3[nH]2)c1N [Example 4-2-088, N-[2-[5-amino-1-[6-(2-chlorophenoxy)-4-methylpyridin-3-yl]pyrazole-4-carbonyl]-5-chloro-1H-indol-6-yl]methanesulfonamide]
12 | 13 | 2.7 | 180 | Cc1cc(Oc2c(F)cccc2Cl)ncc1-n1ncc(C(=O)c2cc3cc(Cl)c(NS(C)(=O)=O)cc3[nH]2)c1N [Example 4-2-089, N-[2-[5-amino-1-[6-(2-chloro-6-fluorophenoxy)-4-methylpyridin-3-yl]pyrazole-4-carbonyl]-5-chloro-1H-indol-6-yl]methanesulfonamide]
13 | 17 | 1.5 | 110 | Cc1ccccc1Oc1cc(C)c(-n2ncc(C(=O)c3cc4cc(Cl)c(NS(C)(=O)=O)cc4[nH]3)c2N)cn1 [Example 4-2-090, N-[2-[5-amino-1-[4-methyl-6-(2-methylphenoxy)pyridin-3-yl]pyrazole-4-carbonyl]-5-chloro-1H-indol-6-yl]methanesulfonamide]
14 | 140 | 9.7 | 350 | Cc1cc(Oc2cccc(Cl)c2)ncc1-n1ncc(C(=O)c2cc3cc(Cl)c(NS(C)(=O)=O)cc3[nH]2)c1N [Example 4-2-091, N-[2-[5-amino-1-[6-(3-chlorophenoxy)-4-methylpyridin-3-yl]pyrazole-4-carbonyl]-5-chloro-1H-indol-6-yl]methanesulfonamide]
15 | 78 | 19 | 270 | Cc1cc(Oc2ccc(F)cc2)ncc1-n1ncc(C(=O)c2cc3cc(Cl)c(NS(C)(=O)=O)cc3[nH]2)c1N [Example 4-2-092, N-[2-[5-amino-1-[6-(4-fluorophenoxy)-4-methylpyridin-3-yl]pyrazole-4-carbonyl]-5-chloro-1H-indol-6-yl]methanesulfonamide]
16 | 5.7 | 0.89 | 19 | Cc1cc(Oc2ccccc2F)cc(F)c1-n1ncc(C(=O)c2cc3cc(NS(C)(=O)=O)c(Cl)cc3[nH]2)c1N [Example 4-2-093, N-[2-[5-amino-1-[2-fluoro-4-(2-fluorophenoxy)-6-methylphenyl]pyrazole-4-carbonyl]-6-chloro-1H-indol-5-yl]methanesulfonamide]
17 | 8.2 | 2 | 33 | Cc1cc(Oc2cccc(F)c2F)cc(F)c1-n1ncc(C(=O)c2cc3cc(NS(C)(=O)=O)c(Cl)cc3[nH]2)c1N [Example 4-2-094, N-[2-[5-amino-1-[4-(2,3-difluorophenoxy)-2-fluoro-6-methylphenyl]pyrazole-4-carbonyl]-6-chloro-1H-indol-5-yl]methanesulfonamide]
18 | 5.3 | 0.85 | 14 | Cc1cc(Oc2ccccc2)cc(F)c1-n1ncc(C(=O)c2cc3cc(NS(C)(=O)=O)c(Cl)cc3[nH]2)c1N [Example 4-2-095, N-[2-[5-amino-1-(2-fluoro-6-methyl-4-phenoxyphenyl)pyrazole-4-carbonyl]-6-chloro-1H-indol-5-yl]methanesulfonamide]
